Assays:
gastric acid secretion = details: for ED (pH increase of 0.75): Rattus norvegicus, sc, 1 h, read-out: Inhibition of gastric acid secretion, ED 0.75; for Inhibition of gastric acid secretion, R.E. (relative effectiveness): rat, subcutaneously, relative to pirenzepine = 1.0
Protocol: The inhibition of gastric acid secretion manifests itself in a rise in the pH of the gastric mucosa. It is tested on groups of 5 conscious female Sprague-Dawley rats (160-180 g). The animals are kept without food (but with water ad libitum) for 48 hours and are then pretreated with varying doses of the test substances, administered subcutaneously. After 1 hour, they are narcotized with Na hexobarbital (46.4 mg/kg, given intravenously). A pH electrode (Philips Special Electrode, type CJP) is then introduced into the stomach and the pH at the surface of the gastric mucosa is measured (pH in the untreated animals is 1.40±0.02; N=200). The ED 0.75, ie. the dose which causes an increase in pH averaging 0.75, compared to the pH in the untreated control animals, is determined from the linear regression between logarithm of administered dose and increase in pH.

[1] = Anti-cholinergic side-effect: inhibition of carbachol-stimulated salivation in the rat; set-up: species or system Sprague-Dawley rats; details: in vivo, sc; for ED50 at 1 h: administered subcutaneously, carbachol 0.6 mg/kg intraperitoneally after 1 hour, read-out: Salivation-inhibiting action, ED 50; for selectivity ratio: subcutaneously, ratio of salivation-inhibiting to secretion-inhibiting dose, read-out: Salivation-inhibiting action, ED 50/ED 0.75
Protocol: (§1) After 1 hour, the pupil diameter is measured. The animals are then given 0.6 mg/kg of carbachol intraperitoneally. After 5 minutes, the saliva secreted as a result of stimulation by carbachol is blotted up with 4 cm wide strips of universal indicator paper (from Merck). The surface area of the paper colored blue by the alkaline saliva serves as a measure of the salivary secretion. The test substance is taken to inhibit salivary secretion if the blue area of the paper is more than 50% smaller than in the case of the controls. Evaluation of the linear relationships between the logarithms of the dose and the frequency of inhibition of salivation is carried out alternatively by Probit analysis.

ulcerous lesions = assay: Anti-ulcerogenic effect in the rat (reserpine/indomethacin/cold induced ulcers); type: in vivo, Sprague-Dawley rats; details: for Anti-ulcerogenic effect, R.E. (relative effectiveness): orally, relative to pirenzepine = 1.0; for ED50: po, 6 h, administered orally, dose which reduces the ulcerated surface area by 50%, read-out: Anti-ulcerogenic effect, ED 50%
Protocol: To examine the anti-ulcerogenic effect, groups of 10 female Sprague-Dawley rats (weighing 160-180 g) are given 1 mg/kg of reserpine intraperitoneally, and are then left for 18 hours without food (but with water ad libitum). After this time, the animals are given 21.5 mg/kg of indomethacin intraperitoneally and the test substance orally; they are then kept for 6 hours at 8° C., after which they are killed. The stomachs are removed and the surface area of ulcerous lesions is determined.

pupil diameter = assay: Anti-cholinergic side-effect: mydriasis (pupil diameter) in the rat; type: in vivo, Sprague-Dawley rats; details: administered subcutaneously, 1 hour, dose which increases the pupil diameter by 2 mm
Protocol: as §1, with “To determine anti-cholinergic side-effects (mydriasis, inhibition of salivation), groups of from 5 to 10 female Sprague-Dawley rats (160-200 g) are given the test substance subcutaneously. After 1” for “After 1”, “Probit analysis. The ED 50 is taken to be the dose at which the relative frequency of inhibition of salivation is 50%.” for “Probit analysis.”
(§2) If there is a mydriatic effect, there is a linear regression between the logarithm of the dose and the increase in pupil diameter in mm, from which the ED 2 mm, ie. the dose which increases the pupil diameter by 2 mm, is calculated.

[2] = as above; type: in vivo, Sprague-Dawley rats; details: in vivo, sc, subcutaneously, ratio of mydriatic to secretion-inhibiting dose, read-out: Mydriatic action, ED 2 mm / ED 0.75
Protocol: as §1, with “To determine anti-cholinergic side-effects (mydriasis, inhibition of salivation), groups of from 5 to 10 female Sprague-Dawley rats (160-200 g) are given the test substance subcutaneously. After 1” for “After 1”, “Probit analysis. The ED 50 is taken to be the dose at which the relative frequency of inhibition of salivation is 50%.” for “Probit analysis.”
as §2

In the case of `CN1CCN(C(=O)C=C2c3ccccc3NC(=O)c3ccccc32)CC1` (mixture of isomers) [Example 1 cis/trans, cis,trans-11-(4-methyl-piperazin-1-yl)-carboxamidomethylene-5,6-dihydromorphanthridin-6-one], the ED (pH increase of 0.75) (gastric acid secretion) is reported as 0.055 mg/kg, the “Inhibition of gastric acid secretion, R.E. (relative effectiveness)” value (gastric acid secretion) is reported as greater than 1.6 and the ED50 at 1 h [1] is reported as 99 mg/kg. The selectivity ratio [1] was 1800, the “Anti-ulcerogenic effect, R.E. (relative effectiveness)” value (ulcerous lesions) was 3.1 and the ED50 (ulcerous lesions) was 2.1 mg/kg. For the same compound, the “Mydriatic action, ED 2 mm” value (pupil diameter) was greater than 215 mg/kg and the selectivity ratio [2] was greater than 3900.
For `CN1CCN(C(=O)/C=C2/c3ccccc3NC(=O)c3ccccc32)CC1` [Example 1 cis, cis-11-(4-methyl-piperazin-1-yl)-carboxamidomethylene-5,6-dihydro-morphanthridin-6-one], the ED (pH increase of 0.75) (gastric acid secretion) was 0.032 mg/kg, the “Inhibition of gastric acid secretion, R.E. (relative effectiveness)” value (gastric acid secretion) was 2.7 and the ED50 at 1 h [1] was 50 mg/kg. The selectivity ratio [1] was 1600, the “Anti-ulcerogenic effect, R.E. (relative effectiveness)” value (ulcerous lesions) was 3.8 and the ED50 (ulcerous lesions) was 1.7 mg/kg. For the same compound, the “Mydriatic action, ED 2 mm” value (pupil diameter) was 198 mg/kg and the selectivity ratio [2] was 6200.
`CN1CCN(CC(=O)N2c3ccccc3C(=O)Nc3cccnc32)CC1` [Pirenzepine, 5,11-dihydro-11-[(4-methyl-piperazin-1-yl)-acethyl]-6H-pyrido-[2,3,b][1,4]-benzodiazepin-6-one, reference compound] gave an ED (pH increase of 0.75) (gastric acid secretion) of 0.086 mg/kg, an ED50 at 1 h [1] of 2 mg/kg and an ED50 (ulcerous lesions) of 6.5 mg/kg. For the same compound, the “Mydriatic action, ED 2 mm” value (pupil diameter) was 1.6 mg/kg.

Source: patent publication US4399139A, “5,6-Dihydro-11-alkylene-morphanthridin-6-ones, their pharmaceutical compositions and method of use” (BASF Aktiengesellschaft, priority 1981, dated 1983)
